Laboratory results reported in patent US20100076092A1, “LIPID-DERIVED NANOPARTICLES FOR BRAIN-TARGETED DRUG DELIVERY” (priority 2006, published 2010).

Assay: Biodistribution / brain delivery of drug in mice after intravenous drug-loaded nanoparticles
Format: in vivo
Details: mouse, BMS, 12 mg/kg intravenously through tail vein in mice, HPLC, mean±SD (n=6), read-out: drug levels in the brain
Procedure: The brain delivery of BMS was assessed one hour following intravenous administration of brain lipid-coated nanoparticles in mice (FIG. 1). BMS in nanoparticles with or without brain-derived lipids or equivalent amount in solution (12 mg/kg) was injected intravenously in mice through tail vein, and drug levels in different tissues at the end of 1 hr was analyzed by HPLC. Data as mean±SD (n=6). * p<0.05. […] Data as mean±SD (n=4 and 3). * p<0.05.

Cc1noc(NS(=O)(=O)c2cccc3c(N(C)C)cccc23)c1C [solution control, BMS 182874]
concentration at 1 h: 2360 ± 580 ng/g
